# Like-named read-outs stand apart in the source and are kept apart here.
# How the values were obtained:
# [1] = system: ribose-1,5-bisphosphate isomerase (R15Pi); design: method as in PMID 23065974; details: result in words; cited from earlier work
# [2] = target: T1, PH0208 protein (PH0208-WT, PH0208-C135S, PH0208-D204N) (Pyrococcus horikoshii, UniProt O57947, M1V); assay: Co-crystallization or soaking with ribonucleotides (crystal structure complexes); format: binding, Pyrococcus horikoshii OT3; details: for binding of ribonucleotide seen in crystal structure (electron density): co-crystallization or soaking of PH0208-WT, -C135S, -D204N; for preferred molecule at the 'AMP binding site': crystallized in presence of both AMP (1.5 mM) and GMP (4.5 mM)
# T1 construct: an N-terminal α-helical domain (residues 1–122) and a C-terminal α-β-α sandwich domain (residues 123–324); made in house; host or cells: Escherichia coli Rosetta (DE3)
# Procedure: To identify the binding site of ribonucleotides, either co-crystallization or soaking of PH0208-WT, PH0208-C135S and PH0208-D204N proteins with AMP, GMP, CMP and TMP was performed. […] The binding site of AMP lies at the interface of three monomers (chain A, B and D) of the hexameric protein (Fig. 4a). The side chains of Arg124 and Asp290 of chain A undergoes a shift towards AMP to form hydrogen bond with the O2′ and O3′ oxygen atoms of the ribose sugar (Fig. 4b). Another two residues of chain A, Arg229 and Trp231 are involved in interacting with the phosphate groups of the AMP molecule. The side chain atoms of Asn209 and the backbone atoms of Val251 of chain B forms hydrogen bond with the oxygen (O2′ and O3′) atoms of the ribose sugar and the nitrogen (N1 and N6) atom of the adenosine base ring, respectively. Along with chain A and chain B, AMP also binds to a third protomer of the hexameric protein through interactions involving the side chain atoms of Arg190 and Lys194 of chain D (Fig. 4c). Thus, one AMP molecule positions itself to hold three protomers of the hexamer. All the amino acid residues of PH0208 protein forming hydrogen bond with AMP are found to be absolutely conserved in R15Pi enzymes. […] In case of both the mutants, PH0208-C135S and PH0208-D204N, AMP occupies a similar position to that of PH0208-WT protein with the major interactions arising from the three subunits of the hexamer. Similar to PH0208-WT, the adenosine base ring interacts with Val251 of chain B, the oxygen atoms of ribose sugar interacts with Arg124 & Asp290 of chain A and Asn209 of chain B while the phosphate group forms hydrogen bond with Arg229 & Trp231 of chain A and Arg190 & Lys194 of chain D of the mutant proteins (Fig. 4d–f).
# To obtain crystals of PH0208-WT, an initial screening was performed by mixing 2 μl of protein and 2 μl of crystallization condition available in Crystal Screen, Crystal Screen 2 and PEG/Ion kits from Hampton research at 277 K and 293 K by the microbatch-under-oil technique. Further refinement of one of the conditions containing 2.0 M NaCl and 10% (w/v) PEG 6000 using hanging-drop vapor-diffusion technique in 24-well plate was performed to obtain better crystals. However, crystals of the apo form of PH0208-WT protein diffracted very poorly. To obtain diffraction quality crystals, the substrate (R15P) was added to the crystallization drop which was then equilibrated against 500 μl of 0.7 M NaCl and 3% PEG 6000. Yet, the crystals formed diffracted to a resolution of ~7 Å, only. […] For co-crystallization of PH0208-WT, PH0208-C135S and PH0208-D204N with different ligands, the final protein concentration was kept at 9.5, 9.0 and 7.0 mg ml^−1, respectively in 20 mM Tris-HCl pH 8.0 and 150 mM KCl. The final concentration of R15P in the crystallization drops were 8.33–9 mM while that of AMP, GMP, CMP and TMP were 1.66, 4.5 & 9, 1.66 and 9 mM, respectively. In case of ligand soaking, the concentration of AMP was kept at 5 mM. For obtaining the crystals of ligand bound PH0208-C135S and PH0208-D204N complexes, the reservoir buffer was further supplemented with 0.1–0.3% of low melting (LM) agarose. All the crystals were obtained in hanging-drop vapor-diffusion method at 20 °C within a period of 2–7 days.
# [3] = target: T2, PH0208-C135A mutant protein (Pyrococcus horikoshii, UniProt O57947, C135A); assay: biochemical; format: binding, Pyrococcus horikoshii OT3
# T2 construct: an N-terminal α-helical domain (residues 1–122) and a C-terminal α-β-α sandwich domain (residues 123–324); made in house; host or cells: Escherichia coli Rosetta (DE3)
# Procedure: Henceforth, Cys135 was mutated to alanine (PH0208-C135A) to understand its role in ligand (R15P/RuBP) binding.
# (§1) ITC experiments of mutant proteins (PH0208-C135S, PH0208-C135A and PH0208-D204N) with the substrate (R15P) and the product (RuBP) molecules were measured at 25 °C using MicroCal iTC200. Before ITC experiments, the proteins were dialyzed extensively in buffer (20 mM Tris-HCl pH 8.0 and 150 mM KCl) and the equilibrated buffer was subsequently used to prepare ligand solutions to minimize the heat of dilution effects. Each titration consisted of a preliminary injection of 0.4 μl of 7.5–8.0 mM of R15P and RuBP followed by 24 injections of 1.2 μl (spacing 120 s) into the sample cell filled with protein at a final concentration of 75–80 μM. During titration, the syringe rotated at a speed of 450 rpm to facilitate adequate mixing of the reactants. Data were analyzed using MicroCal ORIGIN software and baselines were subtracted from data to obtain accurate heat exchanges.
# [4] = target: T3, PH0208-D204N mutant protein (Pyrococcus horikoshii, UniProt O57947, D204N); assay: biochemical; format: binding, Pyrococcus horikoshii OT3
# T3 construct: an N-terminal α-helical domain (residues 1–122) and a C-terminal α-β-α sandwich domain (residues 123–324); made in house; host or cells: Escherichia coli Rosetta (DE3)
# Procedure: (§2) To determine the binding affinity of the substrate (R15P) and the product (RuBP) to the protein PH0208, isothermal titration calorimetry (ITC) experiments were performed. Since binding of the substrate to the PH0208-WT protein triggers a conformational change along with the formation of the product, the heat change measured during the ITC experiment would reflect the sum of heat generated and absorbed during each event. As a result, the binding affinity (Kd) of PH0208 and R15P/RuBP obtained would be delusional. Therefore, binding affinity was studied using the mutant proteins, PH0208-C135S and PH0208-D204N in which case the heat change would be solely due to ligand binding.
# as §1
# [5] = target: T4, PH0208-C135S mutant protein (Pyrococcus horikoshii, UniProt O57947, C135S); assay: biochemical; format: binding, Pyrococcus horikoshii OT3
# T4 construct: an N-terminal α-helical domain (residues 1–122) and a C-terminal α-β-α sandwich domain (residues 123–324); made in house; host or cells: Escherichia coli Rosetta (DE3)
# Procedure: as §2, §1
# T3 sequence (O57947 whole entry D204N, the tested form may be a part): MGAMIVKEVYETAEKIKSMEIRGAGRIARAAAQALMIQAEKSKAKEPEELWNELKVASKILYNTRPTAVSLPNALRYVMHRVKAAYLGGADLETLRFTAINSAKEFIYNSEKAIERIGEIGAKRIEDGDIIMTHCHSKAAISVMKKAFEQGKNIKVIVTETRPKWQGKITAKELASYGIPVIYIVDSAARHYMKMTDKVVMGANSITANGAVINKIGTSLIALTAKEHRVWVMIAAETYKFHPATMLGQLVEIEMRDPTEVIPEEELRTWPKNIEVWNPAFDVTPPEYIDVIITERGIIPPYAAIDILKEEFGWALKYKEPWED
# T1 sequence (O57947 whole entry M1V, the tested form may be a part): as the sequence (O57947 whole entry D204N, the tested form may be a part) above, with M1V, N204D counted along it
# T2 sequence (O57947 whole entry C135A, the tested form may be a part): as the sequence (O57947 whole entry D204N, the tested form may be a part) above, with C135A, N204D counted along it
# T4 sequence (O57947 whole entry C135S, the tested form may be a part): as the sequence (O57947 whole entry D204N, the tested form may be a part) above, with C135S, N204D counted along it
compound,measurement,setting,value
"Nc1ncnc2c1ncn2[C@@H]1O[C@H](COP(=O)(O)O)[C@@H](O)[C@H]1O [AMP, adenosine 5′-monophosphate]",effect on enzymatic activity / catalytic efficiency of R15Pi,[1],activator of R15Pi
same,binding of ribonucleotide seen in crystal structure (electron density),[2],bound to the proteins
same,preferred molecule at the 'AMP binding site',[2],AMP outcompete GMP and binds to the ‘AMP binding site’
"Cc1cn([C@H]2C[C@H](O)[C@@H](COP(=O)(O)O)O2)c(=O)[nH]c1=O [TMP, thymidine 5′-monophospahte]",effect on enzymatic activity / catalytic efficiency of R15Pi,[1],neither cytosine 5′-monophosphate (CMP) nor thymidine 5′-monophospahte (TMP) possesses the ability to increase the enzymatic activity
same,binding of ribonucleotide seen in crystal structure (electron density),[2],no electron density
"C[S+](CC[C@H](N)C(=O)[O-])C[C@H]1O[C@@H](n2cnc3c(N)ncnc32)[C@H](O)[C@@H]1O (stereo partly shown) [SAM, S-adenosyl methionine]",effect on enzymatic activity / catalytic efficiency of R15Pi,[1],inability
"O=P(O)(O)OC[C@H]1OC(OP(=O)(O)O)[C@H](O)[C@@H]1O (stereo partly shown) [R15P, ribose-1,5-bisphosphate]",interaction with PH0208-C135A (ITC),"[3]; ITC, 25 °C, result in words",did not show any interaction
same,Ka,"[4]; ITC, 25 °C",99100 ± 2630 M⁻¹
same,T∆S,"[4]; ITC, 25 °C",7.77 kcal/mol
same,∆G,"[4]; ITC, 25 °C",-6.8 kcal/mol
same,∆H,"[4]; ITC, 25 °C",0.981 ± 0.049 kcal/mol
same,Kd,"[4]; ITC, 25 °C, read-out: Kd",10 µM
same,Ka,"[5]; ITC, 25 °C",72000 ± 7130 M⁻¹
same,T∆S,"[5]; ITC, 25 °C",7.03 kcal/mol
same,∆G,"[5]; ITC, 25 °C",-6.6 kcal/mol
same,∆H,"[5]; ITC, 25 °C",0.403 ± 0.013 kcal/mol
same,N,"[5]; ITC, 25 °C, single-site model, '(fixed)' = fixed in fit",1.17 ± 0.03
same,Kd,"[5]; ITC, 25 °C, read-out: Kd",13.8 µM
"Nc1ncnc2c1ncn2[C@@H]1O[C@H](CSCC[C@H](N)C(=O)O)[C@@H](O)[C@H]1O [SAH, S-adenosyl homocysteine]",effect on enzymatic activity / catalytic efficiency of R15Pi,[1],inability
"Nc1ccn([C@@H]2O[C@H](COP(=O)(O)O)[C@@H](O)[C@H]2O)c(=O)n1 [CMP, cytosine 5′-monophosphate]",effect on enzymatic activity / catalytic efficiency of R15Pi,[1],neither cytosine 5′-monophosphate (CMP) nor thymidine 5′-monophospahte (TMP) possesses the ability to increase the enzymatic activity
same,binding of ribonucleotide seen in crystal structure (electron density),[2],no electron density
"O=C(COP(=O)(O)O)[C@H](O)[C@H](O)COP(=O)(O)O [RuBP, ribulose-1,5-bisphosphate]",Kd,[3],309 µM
same,Ka,"[3]; ITC, 25 °C",3.23 × 10^3 ± 299 M^−1
same,T∆S,"[3]; ITC, 25 °C",-4.14 kcal/mol
same,∆G,"[3]; ITC, 25 °C",-4.8 kcal/mol
same,∆H,"[3]; ITC, 25 °C",-8.94 ± 0.40 kcal/mol
same,Kd,[4],7.2 µM
same,Ka,"[4]; ITC, 25 °C",139000 ± 12000 M⁻¹
same,T∆S,"[4]; ITC, 25 °C",4.05 kcal/mol
same,∆G,"[4]; ITC, 25 °C",-7.0 kcal/mol
same,∆H,"[4]; ITC, 25 °C",-2.95 ± 0.06 kcal/mol
same,Kd,[5],7.5 µM
same,Ka,"[5]; ITC, 25 °C",133000 ± 72100 M⁻¹
same,T∆S,"[5]; ITC, 25 °C",2.24 kcal/mol
same,∆G,"[5]; ITC, 25 °C",-6.98 kcal/mol
same,∆H,"[5]; ITC, 25 °C",-4.74 ± 0.39 kcal/mol
"Nc1nc2c(ncn2[C@@H]2O[C@H](COP(=O)(O)O)[C@@H](O)[C@H]2O)c(=O)[nH]1 [GMP, guanosine 5′-monophosphate]",effect on enzymatic activity / catalytic efficiency of R15Pi,[1],"elevates the activity of R15Pi, though to a lesser extent as compared to AMP"
same,binding of ribonucleotide seen in crystal structure (electron density),[2],bound to the proteins
same,preferred molecule at the 'AMP binding site',[2],GMP binds to the ‘GMP binding loop’
"Nc1ncnc2c1ncn2[C@@H]1O[C@H](COP(=O)(O)OP(=O)(O)OP(=O)(O)O)[C@@H](O)[C@H]1O [ATP, adenosine 5ʹ-triphosphate]",effect on enzymatic activity / catalytic efficiency of R15Pi,[1],inability

# From publication PMC5789824, “A presumed homologue of the regulatory subunits of eIF2B functions as ribose-1,5-bisphosphate isomerase in Pyrococcus horikoshii OT3” (Scientific Reports, 2018)
